The target of assay [1] is human SOS1 (nucleotide exchange of K-Ras^G12C) (Homo sapiens, UniProt Q07889). The assay can be described thus: Biochemical assay 2: K-Ras^G12C activation assay by hSOS1 at high GTP concentration (HTRF). As to conditions: high GTP; for pIC50: read-out: Assay 2 (KRAS-Activation by SOS high GTP) activity expressed as IC50; for inhibition at 20 µM: read-out: Assay 2 (KRAS-Activation by SOS high GTP) activity expressed as % inhibition at 20 μM. In general terms: In TR-FRET formats the signal depends on donor and acceptor labels being close together.

In assay [2] the target is human SOS1 (loading of human K-Ras^G12C-GDP with fluorescent GTP-analog) (Homo sapiens, UniProt Q07889). The assay can be described thus: Biochemical assay 3: K-Ras^G12C activation assay by hSOS1 (HTRF). As to conditions: no GTP; for pIC50: read-out: Assay 3 (KRAS-Activation by SOS no GTP) activity expressed as IC50; for inhibition at 20 µM: read-out: Assay 3 (KRAS-Activation by SOS no GTP) activity expressed as % inhibition at 20 μM.

In assay [3] the target is K-Ras^G12C : hSOS1 interaction (Homo sapiens, UniProt Q07889). The experiment in a line: Biochemical assay 1: K-Ras^G12C interaction assay with hSOS1 (HTRF). It is filed as binding. As to conditions: for pIC50: read-out: Assay 1 (KRAS-SOS Interaction) activity expressed as IC50; for inhibition at 20 µM: read-out: Assay 1 (KRAS-SOS Interaction) activity expressed as % inhibition at 20 μM.

pIC50: −log10 of the molar value.

The values that follow come from US20240083857A1, “2-Methyl-Quinazolines” (Bayer Pharma Aktiengesellschaft, priority 2017, published 2024).

The term pIC50 denotes −log10 of the IC50, conventionally taken in molar units. Consider `COc1cc2nc(C)nc(N[C@@H](C)c3ccc(-c4ccccc4OC(F)(F)F)s3)c2cc1OC` (racemic) [Example 150, 6,7-dimethoxy-2-methyl-N-[1-{5-[2-(trifluoromethoxy)phenyl]thiophen-2-yl}ethyl]quinazolin-4-amine], for which the results for the pIC50 in assay [1], in assay [2] and in assay [3] were 4.88, 4.88 and 5.13, respectively.

Take `COc1cc2nc(C)nc(N[C@@H](C)c3ccc(-c4ccc5[nH]ccc5c4)s3)c2cc1OC` (racemic) [Example 152, N-{1-[5-(1H-indol-5-yl)thiophen-2-yl]ethyl}-6,7-dimethoxy-2-methylquinazolin-4-amine]: the pIC50 in assay [1] is 5.13; in assay [2], 4.95; in assay [3], 5.26.

For `COc1cc2nc(C)nc(N[C@@H](C)c3ccc(-c4ccoc4)s3)c2cc1OC` (racemic) [Example 153, N-{1-[5-(furan-3-yl)thiophen-2-yl]ethyl}-6,7-dimethoxy-2-methylquinazolin-4-amine], the figures for the pIC50 in assay [1], in assay [2] and in assay [3] were 5.56, 5.39 and 5.63, respectively.

Consider `COc1cc2nc(C)nc(N[C@@H](C)c3ccc(-c4csc5ccccc45)s3)c2cc1OC` (racemic) [Example 154, N-{1-[5-(1-benzothiophen-3-yl)thiophen-2-yl]ethyl}-6,7-dimethoxy-2-methylquinazolin-4-amine], for which the results for the negative logarithm of the IC50 (pIC50) in assay [1], in assay [2] and in assay [3] were 5.06, 4.89 and 5.11, respectively.

Consider `COc1cc2nc(C)nc(N[C@@H](C)c3ccc(-c4cc5ccccc5n4C)s3)c2cc1OC` (racemic) [Example 155, 6,7-dimethoxy-2-methyl-N-{1-[5-(1-methyl-1H-indol-2-yl)thiophen-2-yl]ethyl}quinazolin-4-amine], for which the pIC50 in assay [1] was 5.83; in assay [2], 5.79; in assay [3] it was 6.00.

`CCC/C=C/c1ccc([C@H](C)Nc2nc(C)nc3cc(OC)c(OC)cc23)s1` (racemic) [Example 156, 6,7-dimethoxy-2-methyl-N-[1-{5-[(1E)-pent-1-en-1-yl]thiophen-2-yl}ethyl]quinazolin-4-amine]: the values for the pIC50 in assay [1], in assay [2] and in assay [3] were 5.24, 4.97 and 5.39, respectively.

The term inhibition denotes how much of the control response was suppressed. Regarding `COc1cc2nc(C)nc(N[C@@H](C)c3ccc(/C=C/C4CCCCC4)s3)c2cc1OC` (racemic) [Example 157, N-[1-{5-[(E)-2-cyclohexylethenyl]thiophen-2-yl}ethyl]-6,7-dimethoxy-2-methylquinazolin-4-amine], the inhibition at 20 µM turned out to be 19% in assay [1], 12% in assay [2] and 44% in assay [3].

Take `COc1cc2nc(C)nc(N[C@@H](C)c3ccc(-c4cccc(/C=C/C#N)c4)s3)c2cc1OC` (racemic) [Example 160, (2E)-3-[3-(5-{1-[(6,7-dimethoxy-2-methylquinazolin-4-yl)amino]ethyl}thiophen-2-yl)phenyl]prop-2-enenitrile]: the inhibition at 20 µM in assay [1] turned out to be 33%; in assay [2], 13%. Also, in assay [3], the pIC50 is 4.79.

In the case of `COc1cc2nc(C)nc(N[C@@H](C)c3ccc(-c4ccc(C)cc4C)s3)c2cc1OC` (racemic) [Example 161, N-{1-[5-(2,4-dimethylphenyl)thiophen-2-yl]ethyl}-6,7-dimethoxy-2-methylquinazolin-4-amine], the negative-log IC50 (pIC50) is 5.40 in assay [1], 5.15 in assay [2] and 5.38 in assay [3].

Consider `COc1cc2nc(C)nc(N[C@@H](C)c3ccc(-c4ccc(C(C)=O)s4)s3)c2cc1OC` (racemic) [Example 162, 1-(5′-{1-[(6,7-dimethoxy-2-methylquinazolin-4-yl)amino]ethyl}-2,2′-bithiophen-5-yl)ethanone], for which the pIC50 in assay [1] is 4.94; in assay [2], 4.80; in assay [3] it was 5.06.

In the case of `COc1cc2nc(C)nc(N[C@@H](C)c3ccc(-c4ccccc4NC(C)=O)s3)c2cc1OC` (racemic) [Example 166, N-[2-(5-{1-[(6,7-dimethoxy-2-methylquinazolin-4-yl)amino]ethyl}thiophen-2-yl)phenyl]acetamide], the values for the pIC50 in assay [1], in assay [2] and in assay [3] were 5.43, 5.30 and 5.74, respectively.

Consider `COc1cc2nc(C)nc(N[C@@H](C)c3ccc(-c4ccccc4S(=O)(=O)N(C)C)s3)c2cc1OC` (racemic) [Example 169, 2-(5-{1-[(6,7-dimethoxy-2-methylquinazolin-4-yl)amino]ethyl}thiophen-2-yl)-N,N-dimethylbenzenesulfonamide], for which the values for the pIC50 in assay [1], in assay [2] and in assay [3] were 5.43, 5.34 and 5.67, respectively.

With `COc1cc2nc(C)nc(N[C@@H](C)c3ccc(-c4cccc5[nH]ccc45)s3)c2cc1OC` (racemic) [Example 171, N-{1-[5-(1H-indol-4-yl)thiophen-2-yl]ethyl}-6,7-dimethoxy-2-methylquinazolin-4-amine], the values for the pIC50 in assay [1], in assay [2] and in assay [3] were 5.47, 5.14 and 5.25, respectively.

As to `COc1ncc(-c2ccc([C@H](C)Nc3nc(C)nc4cc(OC)c(OC)cc34)s2)cn1` (racemic) [Example 172, 6,7-dimethoxy-N-{1-[5-(2-methoxypyrimidin-5-yl)thiophen-2-yl]ethyl}-2-methylquinazolin-4-amine], the results for the pIC50 in assay [1], in assay [2] and in assay [3] were 5.13, 5.04 and 5.39, respectively.

As to `COc1cc2nc(C)nc(N[C@@H](C)c3ccc(-c4ccc5c(c4)CCO5)s3)c2cc1OC` (racemic) [Example 174, N-{1-[5-(2,3-dihydro-1-benzofuran-5-yl)thiophen-2-yl]ethyl}-6,7-dimethoxy-2-methylquinazolin-4-amine], the pIC50 in assay [1] is 5.03; in assay [2], 4.74; in assay [3], 5.16.

On to `COc1cc2nc(C)nc(N[C@@H](C)c3ccc(/C=C/c4ccccc4)s3)c2cc1OC` (racemic) [Example 175, 6,7-dimethoxy-2-methyl-N-[1-{5-[(E)-2-phenylethenyl]thiophen-2-yl}ethyl]quinazolin-4-amine], for which the inhibition at 20 µM in assay [1] turned out to be 50%; in assay [2], 44%. Moreover, in assay [3], the negative logarithm of the IC50 (pIC50) is 4.75.

Consider `C/C=C/c1ccc([C@H](C)Nc2nc(C)nc3cc(OC)c(OC)cc23)s1` (racemic) [Example 177, 6,7-dimethoxy-2-methyl-N-[1-{5-[(1E)-prop-1-en-1-yl]thiophen-2-yl}ethyl]quinazolin-4-amine], for which the pIC50 in assay [1] was 5.17; in assay [3] it was 5.24. In addition, the inhibition at 20 µM in assay [2] came out at 49%.

`COc1cc2nc(C)nc(NC(C)c3ccc(-c4ccccc4)o3)c2cc1OC` (single isomer, unassigned) [Example 224, 6,7-dimethoxy-2-methyl-N-[1-(5-phenylfuran-2-yl)ethyl]quinazolin-4-amine, enantiomer]: the figures for the pIC50 in assay [1], in assay [2] and in assay [3] were 5.59, 5.03 and 5.44, respectively.

For `COc1cc2nc(C)nc(N[C@H](C)c3cc4cccc(OC)c4o3)c2cc1OC` (stereo in doubt) [Example 33, 6,7-dimethoxy-N-[1-(7-methoxy-1-benzofuran-2-yl)ethyl]-2-methylquinazolin-4-amine], the inhibition at 20 µM in assay [1] is 24%; in assay [2] it was 9%; in assay [3] it was 53%.

Turning to `COc1cc2nc(C)nc(N[C@@H](C)c3ccc(-c4ccc(N5CCOCC5)cc4)s3)c2cc1OC` (stereo in doubt) [Example 43, 6,7-dimethoxy-2-methyl-N-[1-{5-[4-(morpholin-4-yl)phenyl]thiophen-2-yl}ethyl]quinazolin-4-amine], the inhibition at 20 µM in assay [1] turned out to be 14%; in assay [2], 16%; in assay [3], 30%.

Consider `COc1cc2nc(C)nc(N[C@@H](C)c3ccc(-c4cccc(N5CCOCC5)c4)s3)c2cc1OC` (stereo in doubt) [Example 44, 6,7-dimethoxy-2-methyl-N-[1-{5-[3-(morpholin-4-yl)phenyl]thiophen-2-yl}ethyl]quinazolin-4-amine], for which the inhibition at 20 µM in assay [1] was 47%; in assay [2], 25%; in assay [3], 55%.

Turning to `CCCOc1ccccc1-c1ccc([C@H](C)Nc2nc(C)nc3cc(OC)c(OC)cc23)s1` (stereo in doubt) [Example 47, 6,7-dimethoxy-2-methyl-N-{1-[5-(2-propoxyphenyl)thiophen-2-yl]ethyl}quinazolin-4-amine], the inhibition at 20 µM in assay [1] is 22%; in assay [2], 17%; in assay [3] it was 40%.

`COc1cc2nc(C)nc(N[C@@H](C)c3ccc(-c4ccccc4)s3)c2cc1OC` (stereo in doubt) [Example 70, 6,7-dimethoxy-2-methyl-N-[1-(5-phenylthiophen-2-yl)ethyl]quinazolin-4-amine]: the pIC50 in assay [1] was 5.06; in assay [3], 5.17. In assay [2], the inhibition at 20 µM came to 47%.

Regarding `COc1cc2nc(C)nc(N[C@@H](C)c3ccc(-c4cc(Cl)cc(Cl)c4)s3)c2cc1OC` (stereo in doubt) [Example 122, N-{1-[5-(3,5-dichlorophenyl)thiophen-2-yl]ethyl}-6,7-dimethoxy-2-methylquinazolin-4-amine], the inhibition at 20 µM in assay [1] was determined as 17%; in assay [2], 21%; in assay [3], 46%.
